The conditions of series [1]: 100 K (−173° C.) versus ambient conditions; cited from earlier work.
Series [2] is described as follows: Storage stability of the non-crystalline form at room temperature (appearance, PXRD). The following applies: for time the non-crystalline glass form remained stable: room temperature. It counts as physicochemical. The text has this: Within an hour of the evaporative desolvation process following the laser treatment, the system stabilized with 80 percent or more of the mass of the sample cured to a clear non-crystalline glass rather than a crystalline form.
After the 6 months of storage, the laser treated aspirin was studied by PXRD.
(§1) Subsequent tests with the protocol of Example 2 were repeated with the order of long and short wavelengths reversed, i.e., short wavelength followed by long wavelength cycled sequenced laser treatment. This protocol also produced up to 90 percent yields of room temperature stable non-crystalline glass aspirin, which remained stable at room temperature for over 23 months. The Petri dish containing such a sample of non-crystalline aspirin was placed on edge for a period of about six weeks.

Series [3] in a line: Flow test: Petri dish with sample placed on edge. It counts as physicochemical. The following applies: Example 3; Petri dish on edge for about six weeks.
From the text: as §1

For series [4] the following is noted: 298K; vitrified by melting and cooling or ball-milling; cited from earlier work.

`CC(=O)Oc1ccccc1C(=O)O` [Aspirin Form II]: the “stability of the polymorphic form” value in series [1] is reported as “kinetically stable at 100 K (−173° C.), but converts back to Form I at ambient conditions”.

Consider `CC(=O)Oc1ccccc1C(=O)O` [non-crystalline aspirin, acetylsalicylic acid], for which, in series [2] (Example 2, additional six months of storage after the first 6 months), the “crystallization on further storage” value is on record as “No crystallization has been observed”. In series [2] (Example 2, room temperature of about 18° to 22° C., about 30 to 40 percent humidity), the “storage period with no change in appearance of the sample” value is given as “over 6 months”. For the same molecule, the “time remained stable at room temperature” value in series [2] (Example 3, short wavelength followed by long wavelength laser treatment) is given as “over 23 months”. The “time the non-crystalline glass form remained stable” value in series [2] was “stable at room temperature once the solvent had evaporated”; in series [2] (listed as glass aspirin), “stable for up to about a year at room temperature”; in series [2] (listed as non-crystalline glass form), “stable at room temperature for at least up to about a year”. Further, the “time the non-crystalline form remained stable” value in series [2] (temperature of about 20° to 30° C.) was “stable at a temperature of about 20° to 30 °C for at least about a year”. Further, the “flowing of the sample” value in series [3] is on record as “No flowing of the sample was observed”.

With `CC(=O)Oc1ccccc1C(=O)O` [vitreous aspirin], the stability against crystallization result in series [4] is “did not crystallize for four to five days”.

(Values after patent publication US8377989B2, “Room temperature stable non-crystalline aspirin and method for the preparation thereof” (priority 2007, dated 2013).)
